The values below come from patent US20020103377A1, “Piperidinyloxy and pyrrolidinyloxy oxazolidinone antibacterials” (priority 1999, published 2002).

In brackets after ≈: the same amount, converted by molar mass.

The test system of assay [1] is E. faecium OC3312. Put plainly: MIC by microdilution broth method (NCCLS), E. faecium OC3312. It is filed as cell-based. Conditions: cation adjusted Mueller-Hinton broth, 35° C., 16-20 hours; for MIC: Enterococcus faecium, OC3312, microdilution broth, read-out: MIC (μg/mL) E. faecium OC3312. The method, then: (§1) Minimal inhibitory concentration (MIC) has been an indicator of in vitro antibacterial activity widely used in the art. The in vitro antimicrobial activity of the compounds was determined by the microdilution broth method following the test method from the National Committee for Laboratory Standards (NCCLS). This method is described in the NCCLS Document M7-A4, Vol. 17, No.2, “Methods for Dilution Antimicrobial Susceptibility Test for Bacteria that Grow Aerobically-Fourth Edition”, which is incorporated herein by reference.
(§2) In this method two-fold serial dilutions of drug in cation adjusted Mueller-Hinton broth are added to wells in microdilution trays. The test organisms are prepared by adjusting the turbidity of actively growing broth cultures so that the final concentration of test organism after it is added to the wells is approximately 5×10^4 CFU/well.
(§3) Following inoculation of the microdilution trays, the trays are incubated at 35° C. for 16-20 hours and then read. […] The amount of growth in the wells containing the test compound is compared with the amount of growth in the growth-control wells (no test compound) used in each tray. As set forth in Table 1, compounds of the present invention were tested against a variety of Gram positive and Gram negative pathogenic bacteria resulting in a range of activities, from 1 to ≧128 μg/mL depending on the organism tested.

Assay [2] concerns MRSA OC 2878. Put plainly: MIC by microdilution broth method (NCCLS), MRSA OC 2878. It is filed as cell-based, Staphylococcus aureus. The conditions noted are these: cation adjusted Mueller-Hinton broth, 35° C., 16-20 hours; for MIC: Staphylococcus aureus, MRSA, read-out: MIC (μg/mL) MRSA OC 2878. The method, then: as §1, §2, §3
Background: In broth dilution the organism is exposed to a series of concentrations in liquid medium.

The subject of assay [3] is S. aureus. Put plainly: MIC by microdilution broth method (NCCLS), S. aureus Broth. The conditions noted are these: cation adjusted Mueller-Hinton broth, 35° C., 16-20 hours; for MIC: Staphylococcus aureus, read-out: MIC (μg/mL) S. aureus Broth. In kind it is cell-based. As for the experimental part: as §1, §2, §3

Regarding `CC(=O)NC[C@H]1CN(c2ccc(OC3CCN(C(=O)C(NC(=O)OCc4ccccc4)C(C)C)CC3)nc2)C(=O)O1` (stereo partly drawn) [Compound 50], the MIC in assay [1] is above 64 µg/mL; in assay [2] it was 64 µg/mL (≈ 113 µM); in assay [3] it was above 64 µg/mL.
As for `CC(=O)NC[C@H]1CN(c2ccc(OC3CCN(C(=O)CO)CC3)c(F)c2)C(=O)O1` [Compound 4, (S)-N-[[3-[3-Fluoro-4-{N-(α-hydroxyacetyl)piperidinyl-4-oxy}phenyl]-2-oxo-5-oxazolidinyl]methyl]acetamide], the MIC in assay [1] was 8 µg/mL (≈ 19.5 µM); in assay [2], 4 µg/mL (≈ 9.77 µM); in assay [3], 4 µg/mL (≈ 9.77 µM).
As to `CC(=O)NC[C@H]1CN(c2ccc(OC3CCN(C(=O)COCc4ccccc4)CC3)nc2)C(=O)O1` [Compound 42, (5S)-3-[6-{N-(Benzyloxyacetyl)piperidinyl-4-oxy}-pyridin-3-yl]-5-methylacetamide-oxazolidin-2-one], the MIC in assay [1] is above 128 µg/mL; in assay [2] it was 32 µg/mL (≈ 66.3 µM); in assay [3], 32 µg/mL (≈ 66.3 µM).
On to `CC(=O)NC[C@H]1CN(c2ccc(OC3CCN(C(=O)CCc4ccccc4)CC3)c(F)c2)C(=O)O1` [Compound 28, (S)-N-[[3-[3-Fluoro-4-{N-(3-phenyl-propionyl)piperidinyl-4-oxy}phenyl]-2-oxo-5-oxazolidinyl]methyl]acetamide], for which the MIC is 16 µg/mL (≈ 33.1 µM) in assay [1], 8 µg/mL (≈ 16.5 µM) in assay [2] and 16 µg/mL (≈ 33.1 µM) in assay [3].
Consider `CC(=O)NC[C@H]1CN(c2ccc(OC3CCN(C(=O)COCc4ccncc4)CC3)c(F)c2)C(=O)O1` [Compound 54], for which the MIC in assay [1], in assay [2] and in assay [3] was 8 µg/mL (≈ 16 µM) throughout.
With `CC(=O)NC[C@H]1CN(c2ccc(OC3CCCN(C(C)=O)C3)c(F)c2)C(=O)O1` (stereo partly drawn) [Compound 37, (S)-N-[[3-[3-Fluoro-4-{N-(acetyl)piperidinyl-3-oxy}phenyl]-2-oxo-5-oxazolidinyl]methyl]acetamide], the MIC in assay [1] was found to be 16 µg/mL (≈ 40.7 µM); in assay [2] it was 8 µg/mL (≈ 20.3 µM); in assay [3] it was 8 µg/mL (≈ 20.3 µM).
On to `CC(=O)NC[C@H]1CN(c2ccc(OC3CCN(C(=O)COCc4ccccc4)CC3)c(F)c2)C(=O)O1` [Compound 3, (S)-N-[[3-[3-Fluoro-4-{N-(benzyloxyacetyl)piperidinyl-4-oxy}phenyl]-2-oxo-5-oxazolidinyl]methyl]acetamide], for which the “MIC (μg/mL) E. faecium OC3312” value in assay [1] (microdilution broth) stood at 4 µg/mL (≈ 8.01 µM). For the same compound, in assay [2], the “MIC (μg/mL) MRSA OC 2878” value worked out at 2 µg/mL (≈ 4 µM). For the same compound, in assay [3], the “MIC (μg/mL) S. aureus Broth” value is 4 µg/mL (≈ 8.01 µM).
With `CC(=O)NC[C@H]1CN(c2ccc(OC3CCN(C(C)=O)CC3)c(F)c2)C(=O)O1` [Compound 7, (S)-N-[[3-[3-Fluoro-4-{N-(acetyl)piperidinyl-4-oxy}phenyl]-2-oxo-5-oxazolidinyl]methyl]acetamide], the MIC was determined as 16 µg/mL (≈ 40.7 µM) in assay [1], 8 µg/mL (≈ 20.3 µM) in assay [2] and 8 µg/mL (≈ 20.3 µM) in assay [3].
Regarding `CC(=O)NC[C@H]1CN(c2ccc(OC3CCCN(C(=O)CO)C3)c(F)c2)C(=O)O1` (stereo partly drawn) [Compound 36, (S)-N-[[3-[3-Fluoro-4-{N-(α-hydroxyacetyl)piperidinyl-3-oxy}phenyl]-2-oxo-5-oxazolidinyl]methyl]acetamide], the MIC in assay [1] came out at 16 µg/mL (≈ 39.1 µM); in assay [2] it was 8 µg/mL (≈ 19.5 µM); in assay [3], 8 µg/mL (≈ 19.5 µM).
As for `CC(=O)NC[C@H]1CN(c2ccc(OC3CCN(S(C)(=O)=O)CC3)cc2)C(=O)O1` [Compound 33, (S)-N-[[3-[4-{N-(Methanesulfonyl)piperidinyl-4-oxy}phenyl]-2-oxo-5-oxazolidinyl]methyl]acetamide], the figures for the MIC in assay [1], in assay [2] and in assay [3] were 32 µg/mL (≈ 77.8 µM), 16 µg/mL (≈ 38.9 µM) and 16 µg/mL (≈ 38.9 µM), respectively.
As to `CC(=O)NC[C@H]1CN(c2ccc(OC3CCN(C(=O)c4ccc(C#N)cc4)CC3)nc2)C(=O)O1` [Compound 45, (5S)-3-[6-{N-(4-Cyanobenzoyl)piperidinyl-4-oxy}-pyridin-3-yl]-5-methylacetamide-oxazolidin-2-one], the results for the MIC in assay [1], in assay [2] and in assay [3] were 128 µg/mL (≈ 276 µM), 64 µg/mL (≈ 138 µM) and 64 µg/mL (≈ 138 µM), respectively.
Take `CC(=O)NC[C@H]1CN(c2ccc(OC3CCN(C(C)=O)CC3)nc2)C(=O)O1` [Compound 43, (5S)-3-[6-{N-(Acetyl)piperidinyl-4-oxy}-pyridin-3-yl]-5-methylacetamide-oxazolidin-2-one]: the MIC was above 128 µg/mL in assay [1], 128 µg/mL (≈ 340 µM) in assay [2] and 128 µg/mL (≈ 340 µM) in assay [3].
Regarding `CC(=O)NC[C@H]1CN(c2ccc(OC3CCN(C(=O)CO)CC3)cc2)C(=O)O1` [Compound 31, (S)-N-[[3-[4-{N-(α-Hydroxyacetyl)piperidinyl-4-oxy}phenyl]-2-oxo-5-oxazolidinyl]methyl]acetamide], the values for the MIC in assay [1], in assay [2] and in assay [3] were 32 µg/mL (≈ 81.8 µM), 16 µg/mL (≈ 40.9 µM) and 16 µg/mL (≈ 40.9 µM), respectively.
On to `CC(=O)NC[C@H]1CN(c2ccc(OC3CCN(C(=O)CNC(=O)OCc4ccccc4)CC3)c(F)c2)C(=O)O1` [Compound 15], for which the MIC in assay [1], in assay [2] and in assay [3] was 8 µg/mL (≈ 14.7 µM) each time.
Consider `COCC(=O)N1CCC(Oc2ccc(N3C[C@H](CNC(C)=O)OC3=O)cc2F)CC1` [Compound 5, (S)-N-[[3-[3-Fluoro-4-{N-(methoxyacetyl)piperidinyl-4-oxy}phenyl]-2-oxo-5-oxazolidinyl]methyl]acetamide], for which the MIC came out at 16 µg/mL (≈ 37.8 µM) in assay [1], 8 µg/mL (≈ 18.9 µM) in assay [2] and 8 µg/mL (≈ 18.9 µM) in assay [3].
Turning to `CC(=O)NC[C@H]1CN(c2ccc(OC3CCCN(C(=O)COCc4ccccc4)C3)c(F)c2)C(=O)O1` (stereo partly drawn) [Compound 35, (S)-N-[[3-[3-Fluoro-4-{N-(benzyloxyacetyl)piperidinyl-3-oxy}phenyl]-2-oxo-5-oxazolidinyl]methyl]acetamide], the MIC in assay [1] is 64 µg/mL (≈ 128 µM); in assay [2], 32 µg/mL (≈ 64.1 µM); in assay [3] it was 32 µg/mL (≈ 64.1 µM).
For the compound `CC(=O)NC[C@H]1CN(c2ccc(OC3CCN(C(=O)COCc4cccnc4)CC3)c(F)c2)C(=O)O1` [Compound 55], the MIC in assay [1] came out at 8 µg/mL (≈ 16 µM); in assay [2] it was 16 µg/mL (≈ 32 µM); in assay [3] it was 16 µg/mL (≈ 32 µM).
In the case of `CC(=O)NC[C@H]1CN(c2ccc(OC3CN(S(C)(=O)=O)C3)c(F)c2)C(=O)O1` [Compound 57, (S)-N-[[3-[3-Fluoro-4-{N-(methanesulfonyl)azetidinyl-3-oxy}phenyl]-2-oxo-5-oxazolidinyl]methyl]acetamide], the MIC in assay [1], in assay [2] and in assay [3] was 16 µg/mL (≈ 39.9 µM) each time.
With `CC(=O)NC[C@H]1CN(c2ccc(OC3CCN(C(=O)CN4CCOCC4)CC3)c(F)c2)C(=O)O1` [Compound 56], the MIC in assay [1], in assay [2] and in assay [3] was 32 µg/mL (≈ 66.9 µM) each time.
As for `CC(=O)NC[C@H]1CN(c2ccc(OC3CCN(C(C)=O)CC3)cc2)C(=O)O1` [Compound 32, (S)-N-[[3-[4-{N-(Acetyl)piperidinyl-4-oxy}phenyl]-2-oxo-5-oxazolidinyl]methyl]acetamide], the MIC was 32 µg/mL (≈ 85.2 µM) in assay [1], 8 µg/mL (≈ 21.3 µM) in assay [2] and 16 µg/mL (≈ 42.6 µM) in assay [3].
As for `COc1ccc(C(=O)N2CCC(Oc3ccc(N4C[C@H](CNC(C)=O)OC4=O)cc3F)CC2)cc1` [Compound 13, (S)-N-[[3-[3-Fluoro-4-{N-(4-methoxybenzoyl)piperidinyl-4-oxy}phenyl]-2-oxo-5-oxazolidinyl]methyl]acetamide], the values for the MIC in assay [1], in assay [2] and in assay [3] were 16 µg/mL (≈ 33 µM), 8 µg/mL (≈ 16.5 µM) and 8 µg/mL (≈ 16.5 µM), respectively.
As to `COC(=O)N1CCC(Oc2ccc(N3C[C@H](CNC(C)=O)OC3=O)cc2F)CC1` [Compound 8, (S)-N-[[3-[3-fluoro-4-{N-(methoxycarbonyl)piperidinyl-4-oxy}phenyl]-2-oxo-5-oxazolidinyl]methyl]acetamide], the MIC worked out at 8 µg/mL (≈ 19.5 µM) in assay [1], 4 µg/mL (≈ 9.77 µM) in assay [2] and 8 µg/mL (≈ 19.5 µM) in assay [3].
Take `CC(=O)NC[C@H]1CN(c2ccc(OC3CCN(C(=O)N(C)C)CC3)nc2)C(=O)O1` [Compound 49, (5S)-3-[6-{N-(Dimethylcarbamoyl)piperidinyl-4-oxy}-pyridin-3-yl]-5-methylacetamide-oxazolidin-2-one]: the MIC in assay [1] is above 128 µg/mL; in assay [2], 128 µg/mL (≈ 316 µM); in assay [3], above 64 µg/mL.
As to `COc1cccc(C(=O)N2CCC(Oc3ccc(N4C[C@H](CNC(C)=O)OC4=O)cn3)CC2)c1` [Compound 48, (5S)-3-[6-{N-(3-Methoxybenzoyl)piperidinyl-4-oxy}-pyridin-3-yl]-5-methylacetamide-oxazolidin-2-one], the MIC in assay [1] is above 128 µg/mL; in assay [2] it was 32 µg/mL (≈ 68.3 µM); in assay [3] it was 64 µg/mL (≈ 137 µM).
For the compound `CC(=O)NC[C@H]1CN(c2ccc(OC3CCN(C(=O)c4ccncc4)CC3)c(F)c2)C(=O)O1` [Compound 21, (S)-N-[[3-[3-Fluoro-4-{N-(4-pyridoyl)piperidinyl-4-oxy}phenyl]-2-oxo-5-oxazolidinyl]methyl]acetamide], the MIC in assay [1] worked out at 64 µg/mL (≈ 140 µM); in assay [2], 32 µg/mL (≈ 70.1 µM); in assay [3], 32 µg/mL (≈ 70.1 µM).
